Data reported in patent US20090156638A1, “Uses of nordihydroguaiaretic acid (NDGA) and derivatives thereof in preventing transmission of sexually transmitted diseases” (priority 2007, published 2009).
Read-outs that look alike come from different tables or passages of the source. Values belong to the molecule of their own block, whether it stands above or below them.

What was measured:
HIV-1 = conditions: read-out: Inhibitory Concentration (IC50 or EC50), Cos cells
HSV-1 [1] = test: Mutation-insensitivity: IC50 against HSV-1 over ten virus passages; type: cell-based
Source text: In contrast, host factors, unlike viral factors, are under no selective pressure to mutate and are in general structurally invariable. […] Table 1 compares the IC50 of M4N and acyclovir for ten passages.

HSV-2 = test: Mouse vaginal model of HSV-2 infection; type: in vivo, CF-1 mice; conditions: for animals infected: 10 mice per group
Procedure: The efficacies of […] (FIG. 8A) and […] (FIG. 8A) against HSV-2 in a mouse vaginal model system have also been examined. […] At the end of three days, the vaginal lavages were collected from the washings of the vagina regions. The status of the vaginal HSV-2 infection and replication were examined by their cytopathic effects on cultured human foreskin fibroblast cells. Monitoring and scoring were carried out by three persons independently.

[2] = system: Sp1 transcription factor binding to the major groove of Sp1 site; conditions: by competition for binding or altering DNA conformation
Source text: (§1) The […] (IE) ICP4 gene of HSV is essential for HSV replication.

HIV-1RTMF = conditions: read-out: Inhibitory Concentration (IC50 or EC50), H9 cells
HSV-1 [3] = conditions: read-out: Inhibitory Concentration (IC50 or EC50)
[4] = system: acyclovir-resistant strains of HSV-1 (HSV-1^R); conditions: read-out: Inhibitory Concentration (IC50 or EC50)
HSV-1 [5] = conditions: topical application for six days in guinea pigs, up to 50 mM; reference (34); cited from earlier work
HSV-1 [6] = conditions: for efficacy against HSV-1 cutaneous infection: day 6
Procedure: The dorsal cutaneous guinea pig model system is a well-established model for HSV-1 infection.
In FIGS. 6A-6D, for topical treatment with M4N sections of shaved and depilated dorsal guinea pig skin were infected equally were infected with HSV-1.
McKrae strain). […] Treatments were administered twice daily and photogragphs were taken at day 6 post-infection. […] Regions 1 and 4 were infected with high levels of HSV-1 (1×10^8 pfu/mL), regions 2 and 5 were infected with moderate levels of HSV-1 (1×10^6 pfu/mL) and regions 3 and 6 were infected with low levels of HSV-1 (1×10^4 pfu/mL).

Sp1 enhancer sequence = conditions: ethidium displacement; G4N concentration causing 50% reduction of DNA-ethidium fluorescence
Source text: as §1

HSV-1^R = conditions: 40 μM; explanted mouse trigeminal ganglia
SIVmac239 = conditions: read-out: Inhibitory Concentration (IC50 or EC50), 174 × CEM cells

Compound: COc1cc(CC(C)C(C)Cc2ccc(O)c(O)c2)ccc1O (stereo not shown) [Mal.4, 3′-O-methyl nordihydroguaiaretic acid]
IC50 (HIV-1): 25 µM

Compound: Nc1nc2c(ncn2COCCO)c(=O)[nH]1 [Acyclovir, acyclovir, reference compound]
IC50 (HSV-1 [1]; Human alphaherpesvirus 1, HSV-1 passage 1): 7.54 µM
IC50 (HSV-1 [1]; Human alphaherpesvirus 1, HSV-1 passage 2): 37.8 µM
IC50 (HSV-1 [1]; Human alphaherpesvirus 1, HSV-1 passage 3): 88.8 µM
IC50 (HSV-1 [1]; Human alphaherpesvirus 1, HSV-1 passage 4): 138 µM
IC50 (HSV-1 [1]; Human alphaherpesvirus 1, HSV-1 passage 5): 111 µM
IC50 (HSV-1 [1]; Human alphaherpesvirus 1, HSV-1 passage 6): 131 µM
IC50 (HSV-1 [1]; Human alphaherpesvirus 1, HSV-1 passage 7): 190 µM
IC50 (HSV-1 [1]; Human alphaherpesvirus 1, HSV-1 passage 8): 444 µM
IC50 (HSV-1 [1]; Human alphaherpesvirus 1, HSV-1 passage 9): 379 µM
IC50 (HSV-1 [1]; Human alphaherpesvirus 1, HSV-1 passage 10): 444 µM

disruption of Sp1 transcription factor binding [2]: disrupt Sp1 transcription factor binding
Compound: CC(Cc1ccc(OCCN2CCCCC2)c(OCCN2CCCCC2)c1)C(C)Cc1ccc(OCCN2CCCCC2)c(OCCN2CCCCC2)c1 (stereo not shown) [P4N, tetra-O—(N-ethylpiperidinyl)-nordihydroguaiaretic acid]
average scale of infection (HSV-2; 10 mM): 0.19
animals infected (HSV-2; 10 mM): 2 of 10
efficacy against vaginal HSV-2 infection (HSV-2; in PBS): quite effective

Compound: C[C@H](Cc1ccc(OC(=O)CN(C)C)c(OC(=O)CN(C)C)c1)[C@@H](C)Cc1ccc(OC(=O)CN(C)C)c(OC(=O)CN(C)C)c1 [G4N, tetra-O—(N,N-dimethyl)glycyl-nordihydroguaiaretic acid]
IC50 (HIV-1RTMF): 12 µM
IC50 (HSV-1 [3]; HSV-1 McKrae (Vero from row above)): 4.5 µM
IC50 (HSV-1 [3]; Vero cells, HSV-1 KOS): 3.6 µM
IC50 ([4]; HSV-1^R F59878): 2.1 µM
IC50 ([4]; HSV-1^R T28387): 4.3 µM
IC50 (HIV-1): 36 µM
toxicity (HSV-1 [5]): no evidence of toxicity
efficacy against HSV-1 cutaneous infection (HSV-1 [6]; 5 mM topically twice daily, 1×10^8 pfu/mL McKrae): semi-effective
efficacy against HSV-1 cutaneous infection (HSV-1 [6]; 10 mM topically twice daily, 1×10^8 pfu/mL McKrae): more effective
efficacy against HSV-1 cutaneous infection (HSV-1 [6]; 150 mM topically twice a day, 1×10^4 to 1×10^8 pfu/mL): extremely effective
inhibition of HSV-1 induced cutaneous lesion formation and viral shedding (HSV-1 [6]; topical application, guinea pig): effectively inhibited HSV-1 induced cutaneous lesion formation and viral shedding
average infection score (HSV-2; 0.1 mM): 0.5
infection (HSV-2; 0.1 mM): ~12.5%
animals infected (HSV-2; 0.1 mM, vaginal lavage at three days): 1 out of 10
animals infected (HSV-2; 10 mM): no infections detected
animals infected (HSV-2; 100 mM): no infections detected
apparent equilibrium binding constant (Kapp) (Sp1 enhancer sequence): 3e+06 M⁻¹
decrease in HSV reactivation (HSV-1^R): 40 μM had 67%
IC50 (SIVmac239): 5 µM
